Experimental data: patent US6258840A, “Analogues or derivatives of quercetin (prodrugs)” (Cobra Therapeutics Limited, priority 1996, dated 2001)
Where a name gives a salt, the structure may show the parent alone. Read-outs that look alike come from different tables or passages of the source.

Tests used:
[1] = Stability to Human Plasma (HPLC, 37° C.); format: in vitro ADME; conditions: for half-life: 0.02 ml of 6.3 mg/ml prodrug solution added to 2.5 ml plasma
Experimental: Freshly prepared plasma (2.5 ml) was incubated at 37° C. and 0.02 ml of a 6.3 mg/ml solution of the prodrug compound in water was added. Aliquots of plasma were taken for HPLC analysis at zero time and at intervals thereafter. Samples were quenched with chilled methanol, the resulting precipitate was centrifuged at 4° C. at 800 rpm for 5 minutes, and the supernatant was analysed by HPLC.

[2] = pharmaceutically acceptable solvents; cited from earlier work
[3] = tested on: calcium- and phospholipid dependent protein kinase (protein kinase C); conditions: in vitro; cited from earlier work
[4] = tested on: antiproliferative activity of cis-diaminedichloroplatinum II (cis-DDP); conditions: in vitro, with cis-DDP; cited from earlier work
[5] = tested on: calcium- and phospholipid dependent protein kinase (protein kinase C); conditions: in vivo; cited from earlier work
[6] = tested on: antiproliferative activity of cis-diaminedichloroplatinum II (cis-DDP); conditions: in vivo, with cis-DDP; cited from earlier work

O=C(O)CNC(=O)Oc1ccc(-c2oc3cc(O)cc(O)c3c(=O)c2O)cc1O [4' carbamate ester]
conversion into Quercetin [1]: converted into Quercetin
half-life [1]: ~1 h

O=C(O)CNC(=O)Oc1cc(-c2oc3cc(O)cc(O)c3c(=O)c2O)ccc1O [3' carbamate ester, 3'-((N-Carboxymethyl)carbamoyloxy)-3,4',5,7-tetrahydroxyflavone, N-Methyl-D-glucamine salt]
conversion into Quercetin [1]: converted into Quercetin
half-life [1]: ~1 h

3'/4'-((N-Carboxymethyl)carbamoyloxy)-3,4'(3'),5,7-tetrahydroxy-flavone, N-Methyl-D-glucamine salt
pH of solution in water (10 mg/ml solution in water): approximately 7
period for which the solution is stable (10 mg/ml solution in water, -20° C.): at least 12 weeks
pH of solution in dextrose (diluted into dextrose, final prodrug concentration 1 mg/ml): approximately 6

O=c1c(O)c(-c2ccc(O)c(O)c2)oc2cc(O)cc(O)c12 [Quercetin, 3,3',4',5,7-pentahydroxyflavone]
solubility [2]: limited solubility
inhibition of protein kinase C activity [3]: inhibit the activity
enhancement of antiproliferative activity of cis-DDP [4]: synergistically enhances the antiproliferative activity
inhibition of protein kinase C activity [5]: inhibit the activity
enhancement of antiproliferative activity of cis-DDP [6]: synergistically enhances the antiproliferative activity
